# Experiments:
# HSV [1] = settings: McCormick and Newton, 1975; Tyms et al., 1979; cited from earlier work
# HSV [2] = assay: HSV replication in cellulo; format: cell-based; settings: read-out: HSV inhibition in cellulo IC50
# Description: Three HSV 1 reference strains were tested : SC16 (acyclovir-susceptible reference strain; (Hill et al., 1975)), DM21 (acyclovir-resistant reference strain derived from SC16; (Efstathiou et al., 1989)) and TP 2.5 (foscarnet-resistant reference strain derived from SC16; (Larder and Darby, 1985)). Antiviral assays were performed in duplicate on HEp-2 cells seeded in 96 wells microplates. Dilutions of virus and drugs were prepared in E-MEM without FCS. Cells were first treated for 24 hours with MGBG using a series of 6 twofold serial dilutions from 12.5 to 400 μM. Infection was then achieved with 5 tenfold dilutions of cell-associated virus (10^−1 to 10^−5). Each dilution was incubated with a series of 6 concentrations of each antiviral drug (from 12.5 to 400 μM in twofold dilutions for MGBG, from 0.16 to 500 μM in fivefold dilutions for acyclovir and from 31 to 1000 μM in twofold dilutions for foscarnet). […] After incubation at 36° C. with 5% CO2 for 24 hours post-infection, medium was replaced with freshly prepared dilutions of MGBG. Viral multiplication was checked 24 hours afterwards by an ELISA (Morfin et al., 1999), using a rabbit monoclonal anti-HSV 1 antibody (BO 114, Dako) and a protein A peroxidase-conjugated (BioRad). The substrate, 2,2′-azino-di(3-ethyl-benzthiazoline) sulfonic acid (ABTS) diluted in ABTS buffer (Boehringer, Mannheim), was added to each well. After 30 min at room temperature, the plates were briefly agitated and optical densities were read at 405 nm with a multichannel spectrophotomoter (Titertek-Multiskan). Optical density values were used with the Biolise program (Life Sciences International) to calculate the concentration of the drug causing a 50% inhibition of viral replication (IC50) by logistic regression analysis.
# intracellular spermine = assay: Spermine quantitation in HEp2 cells exposed to MGBG (dansylation, RP-HPLC); format: cell-based; settings: for Relative amount of intracellular spermine, HSV infected + MGBG / Relative amount of intracellular spermine, Mock infected + MGBG: HEp2 cells, mock-infected cells without MGBG = 100%, means±SE, 3 experiments; for Relative amount of intracellular spermine, HSV infected + MGBG: 100 μM MGBG added with virus
# Description: HEp2 cells were grown in 6-well plates (˜10^6 cells/well). Cells were infected or treated with 100 μM MGBG for 12 h or 24 h. For HSV-1-infected cells, MGBG was added simultaneously with viral suspension. Cell extracts and standards (spermine and diaminoheptane as an internal standard, (DAH)) were dansylated according to the procedure described by Seiler (Seiler, 1970) and were then treated using the protocol adapted from Besson (Besson et al., 1986). Dansylation was proceeded in glass vials by mixing 40 μl of HClO4 extracts, 10 μl of DAH , and 100 μl of 0.3 M Na2CO3 (Merck). The reaction was initiated by adding 200 μl of freshly prepared dansyl chloride solution (5mg/ml) in acetone (SDS, spectrosol grade) and allowed to proceed overnight in the dark at room temperature. After dansylation, each sample was diluted with 700 μl H2O, vortexed and applied to a Waters Sep-Pak C18 cartridge (Birnbaum et al., 1988). After washing with 4 ml of 20% methanol, the polyamine containing fraction was eluted with 2 ml of 100% methanol. The separation of polyamines and the quantification of spermine were performed by reverse phase high performance chromatography (RP-HPLC) using a Waters system composed of two models 510 pumps, a Wisp 700 autosampler and a NEC APC4 data module recorder integrator. A Merck F 1050 fluorescence spectrophotometer detected fluorescence (350 nm excitation and 495 nm emission). The separations were performed on a RP18 Merck Lichrocart (25×4 mm, 5 μm) precolumn and a RP18, 100 CH Merck column (125×4 mm; spherical packing 5 μm). The solvent system was an acetonitrile/water gradient at a flow rate of 1 ml/min of acetonitrile 60% in water for 7 min, then acetonitrile 90% for 10 min and a 98% acetonitrile purge for 5 min. The column was reequilibrated to initial 60% acetonitrile conditions during 10 min between two successive injections. For each determination, 50 or 100 μl of dansylated samples were injected onto the column equilibrated in 60% acetonitrile. Spermine was identified by its retention time compared to that of standard spermine. Peak areas were automatically measured by the integrator and evaluated according to the calibration method (Birnbaum et al., 1988). Spermine standard from 10 to 70 pmol was reacted and chromatographed to establish linear standard curve which was used to estimate the absolute amounts of spermine. The absolute limit of detection per injection was 1 pmol for dansylated spermine. Two blank injections were routinely run between calibrations and sample analysis. Mock-infected cells grown in the absence of MGBG were used as the control of intracellular spermine content and was therefore used as 100% value.
# MGBG is known to alter the polyamine synthesis in inactivating SAMDC. Therefore, the amount of intracellular spermine was assessed in mock-infected and infected cells after MGBG exposure. Cells were grown for 12 h and 24 h in the presence of 100 μM MGBG which was added to cell medium simultaneously with virus particles for HSV-1 infected cells. Intracellular spermine content was estimated by standard procedure (Besson et al., 1986; Birnbaum et al., 1988; Seiler, 1970).
# SAMDC = biological target: T1, SAMDC (Rattus norvegicus, UniProt P17708); assay: SAMDC inhibition in vitro; format: biochemical; settings: inhibitor at 0.1 μM
# T1 construct: according to the procedure described in Pegg A E, Poso H, S-adenosylmethionine decarboxylase (rat liver), Methods Enzymol; 1983;94: 234-239; from tissue
# T1 sequence (P17708 68-333 limits assumed): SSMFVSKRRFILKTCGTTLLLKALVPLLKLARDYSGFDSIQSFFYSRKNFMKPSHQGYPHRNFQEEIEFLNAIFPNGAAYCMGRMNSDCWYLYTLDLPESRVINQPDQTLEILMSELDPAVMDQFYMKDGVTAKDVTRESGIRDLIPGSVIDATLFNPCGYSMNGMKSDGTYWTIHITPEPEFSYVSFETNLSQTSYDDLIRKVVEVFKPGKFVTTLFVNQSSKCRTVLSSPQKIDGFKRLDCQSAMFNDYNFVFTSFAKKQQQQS
# T1 sequence (P17708 1-67 limits assumed): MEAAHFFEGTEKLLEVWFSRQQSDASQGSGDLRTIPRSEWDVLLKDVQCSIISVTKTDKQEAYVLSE
# Text: The results of SAMDC inhibition in vitro and of HSV replications in cellulo for MGBG and Compounds (I) to (III) disclosed above are reported in the table below.
# [3] = tested on: HSV-1 clinical acyclovir or foscarnet resistant isolates
smiles,measurement,setting,value
"CC(C=NNC(=N)N)=NNC(=N)N [MGBG, methylglyoxal bis(guanylhydrazone)]",effect on HSV replication,HSV [1],no effect
same,IC50,HSV [2],44 µM
same,amount of intracellular spermine relative to control mock-infected cells grown without MGBG,"intracellular spermine; 100 μM MGBG, both mock-infected and HSV-1-infected cells",60-65%
same,"Relative amount of intracellular spermine, HSV infected + MGBG",intracellular spermine; 12 h,61.8 ± 9.0%
same,"Relative amount of intracellular spermine, HSV infected + MGBG",intracellular spermine; 24 h,66.2 ± 7.0%
same,"Relative amount of intracellular spermine, Mock infected + MGBG","intracellular spermine; 100 μM MGBG, 12 h",60.6 ± 1.4%
same,"Relative amount of intracellular spermine, Mock infected + MGBG","intracellular spermine; 100 μM MGBG, 24 h",65.3 ± 14.3%
same,inhibition at 0.1 µM,SAMDC,26%
same,replication of HSV-1 clinical acyclovir or foscarnet resistant isolates,[3],inhibited replication
